Our source for the IC50 values is patent US20240043415A1, “KCNT1 INHIBITORS AND METHODS OF USE” (Praxis Precision Medicines, Inc., priority 2020, published 2024).

The experiment addresses T1, KCNT1 (KNa1.1, Slack) (Homo sapiens, UniProt Q5JUK3).
T1 construct: expressed in transfected cells; host or cells: HEK-TREX (tetracycline-inducible)
T1 sequence (Q5JUK3 1-1230): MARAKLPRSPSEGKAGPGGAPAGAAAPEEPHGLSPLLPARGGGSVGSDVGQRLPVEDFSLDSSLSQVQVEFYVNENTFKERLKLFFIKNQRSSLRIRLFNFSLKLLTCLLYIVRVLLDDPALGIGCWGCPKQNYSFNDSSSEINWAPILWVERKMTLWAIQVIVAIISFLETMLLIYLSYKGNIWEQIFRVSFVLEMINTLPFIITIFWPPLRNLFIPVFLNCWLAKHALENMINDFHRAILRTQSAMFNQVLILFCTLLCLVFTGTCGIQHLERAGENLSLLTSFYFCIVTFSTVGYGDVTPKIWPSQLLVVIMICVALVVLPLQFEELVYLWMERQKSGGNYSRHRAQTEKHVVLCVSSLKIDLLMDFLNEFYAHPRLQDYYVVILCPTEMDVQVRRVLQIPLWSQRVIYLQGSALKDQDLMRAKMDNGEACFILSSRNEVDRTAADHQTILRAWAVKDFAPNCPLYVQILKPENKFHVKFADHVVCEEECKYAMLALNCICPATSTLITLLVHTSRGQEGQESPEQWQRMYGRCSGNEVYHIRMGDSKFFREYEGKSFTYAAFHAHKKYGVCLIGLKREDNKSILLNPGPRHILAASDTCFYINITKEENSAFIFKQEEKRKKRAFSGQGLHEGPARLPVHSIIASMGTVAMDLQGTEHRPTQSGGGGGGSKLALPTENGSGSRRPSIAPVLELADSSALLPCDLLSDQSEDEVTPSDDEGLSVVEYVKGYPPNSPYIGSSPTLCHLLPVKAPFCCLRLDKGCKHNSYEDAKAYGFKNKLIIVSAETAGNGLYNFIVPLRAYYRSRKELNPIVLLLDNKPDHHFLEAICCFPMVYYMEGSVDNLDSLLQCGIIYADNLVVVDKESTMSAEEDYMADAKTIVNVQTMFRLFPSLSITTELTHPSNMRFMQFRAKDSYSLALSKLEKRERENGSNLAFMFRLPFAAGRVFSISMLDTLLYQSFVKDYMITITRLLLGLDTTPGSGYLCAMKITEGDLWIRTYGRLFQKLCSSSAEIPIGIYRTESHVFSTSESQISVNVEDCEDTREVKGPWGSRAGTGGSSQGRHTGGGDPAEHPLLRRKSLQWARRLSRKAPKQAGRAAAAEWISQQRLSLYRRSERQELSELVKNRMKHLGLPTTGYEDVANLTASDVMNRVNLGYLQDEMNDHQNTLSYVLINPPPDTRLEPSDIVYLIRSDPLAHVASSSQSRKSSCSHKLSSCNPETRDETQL
In words: KCNT1 patch clamp assay (SyncroPatch 384PE, HEK-TREX cell line). The note with it: tetracycline inducible HEK-TREX cell line, perforated patch, step to 0 mV, room temperature; read-out: KCNT1-WT IC50. It counts as cell-based. As to the method:
Currents were recorded using the SyncroPatch 384PE automated, patch clamp system. Pulse generation and data collection were performed with PatchController384 V1.3.0 and DataController384 V1.2.1 (Nanion Technologies). The access resistance and apparent membrane capacitance were estimated using built-in protocols. Current were recorded in perforated patch mode (10 μM escin) from a population of cells. The cells were lifted, triturated, and resuspended at 800,000 cells/ml. The cells were allowed to recover in the cell hotel prior to experimentation. Currents were recorded at room temperature. […] The extracellular solution was used as the wash, reference and compound delivery solution. […] Escin is made at a 5 mM stock in water, aliquoted, and stored at −20° C. The compound plate was created at 2× concentrated in the extracellular solution. The compound was diluted to 1:2 when added to the recording well. The amount of DMSO in the extracellular solution was held constant at the level used for the highest tested concentration. A holding potential of −80 mV with a 100 ms step to 0 mV was used. […] The average mean current from 3 sweeps was calculated and the % inhibition of each compound was calculated. The % Inhibition as a function of the compound concentration was fit with a Hill equation to derive IC50, slope, min and max parameters.
(In general: Patch clamp records ionic current or voltage across a cell membrane.)

In general, IC50 refers to the point on the concentration scale where inhibition reaches its midpoint. In the case of `C[C@H](NC(=O)c1cc(C(F)(F)F)nn1C)c1noc(-c2ccnc(C3CC3)c2)n1` [Compound 2a, (S)-N-(1-(5-(2-cyclopropylpyridin-4-yl)-1,2,4-oxadiazol-3-yl)ethyl)-1-methyl-3-(trifluoromethyl)-1H-pyrazole-5-carboxamide], the IC50 was no more than 1 µM.
